In brackets after ≈: the same amount, converted by molar mass. Where two headings read alike, the source gives them in different places.
Experiments:
[1] = system: P. aeruginosa (1051575); test: Potentiation of doxycycline activity (combination MIC); type: cell-based, Pseudomonas aeruginosa; details: for MIC - P. aeruginosa (1051575): content of compound of formula (I) to restore the doxycycline activity (at 2 μg/mL): in presence of doxycycline 2 μg/mL, 24 hours at 37° C.; for synergism when administered with doxycycline: doxycycline at 2 μg/mL
[2] = system: CHO-K1 cells; test: WST1 cytotoxicity test on CHO-K1 cells; type: cell-based, Chinese hamster; details: Cricetulus griseus
Method in brief: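 CHO-K1 cells pre-grown 24 h, then exposed to increasing compound concentrations in duplicate for 24 h at 37° C, 5% CO2. Viability read after 20 min with 10% WST-1 in PBS at 450 nm; IC50 from nonlinear regression as concentration cutting viability 50%.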

[3] = system: E. faecalis Human ATCC 29212; test: MIC determination, E. faecalis human ATCC 29212; type: cell-based; details: Enterococcus faecalis, ATCC29212; Gram-positive; Mueller-Hinton medium, 24 h at 37° C.
Method in brief: (§1)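 Broth microdilution in Mueller-Hinton medium; compounds from 5 mg/mL stock in DMSO/methanol (50/50), twofold serial dilutions, inoculum adjusted to OD 0.01. Plates incubated 24 h at 37 °C, humid atmosphere; OD read at 620 nm to derive MIC, duplicates.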

[4] = system: S. intermedius Animal (1051997); test: MIC determination, S. intermedius animal (1051997); type: cell-based; details: Staphylococcus intermedius; Gram-positive; Mueller-Hinton medium, 24 h at 37° C.
Method in brief: as §1

[5] = system: P. aeruginosa Animal (1051575); test: MIC determination, P. aeruginosa animal (1051575); type: cell-based; details: Pseudomonas aeruginosa; Gram-negative; Mueller-Hinton medium, 24 h at 37° C.
Method in brief: as §1

[6] = system: P. aeruginosa (1051575); test: Potentiation of ampicillin activity (combination MIC); type: cell-based, Pseudomonas aeruginosa; details: ampicillin 4 μg/mL; concentration of compound required to restore antibiotic activity
Procedure: This method requires the use of a 96-well plate: 100 μL of a liquid culture medium are placed in each well and then seeded with the microbial suspension prepared previously. The required volume to be seeded is calculated for an OD of 0.01, which corresponds to about 5×10^6 bacteria in each well. In this plate, the first line corresponds to a negative control (200 μL of sterile culture medium in each well), the second line corresponds to a positive control (100 μL of sterile culture medium+100 μL of the bacterial suspension), and the third line contains 192 μL of culture medium; 8 μL of compound of formula (I) to be tested are placed in each well. Thereafter, a cascade dilution is performed from this line. […] 92 μL of bacterial suspension are then added to lines 3 to 8. The results are read (the determination of the MIC (2 μg/mL of doxycycline) in the presence of X g/mL of compound of formula (I)) after 24 hours of incubation at 37° C. under a humid atmosphere. After 24 hours of incubation at 37° C., 40 μL of nitro tetrazolium iodide are added to each well to reveal the presence of live bacteria by staining the medium pink.
The procedure is identical to that indicated in Example 5 above. […]
The results are given in table V. They indicate the concentration of compound of formula (I) required to be able to restore the activity of the antibiotic under consideration.

[7] = CHO-K1, 24 h, read-out: IC50 (μg/mL) CHO
[8] = CHO-K1, read-out: IC50 (μg/mL) CHO

SMILES | MIC - P. aeruginosa (1051575): content of compound of formula (I) to restore the doxycycline activity (at 2 μg/mL) [1] | IC50 [2, 7] | IC50 [2, 8] | MIC [3] | MIC [4] | MIC [5] | MIC P. aeruginosa (1051575) compound + ampicillin [6] | synergism when administered with doxycycline [1]
CC(C)NC(=O)CC[C@@H](C)[C@H]1CCC2C3C(CC[C@@]21C)[C@@]1(C)CC[C@H](NCCCNCCCN)CC1C[C@H]3O (stereo partly drawn) [(8), 3β-norspermidino-N-isopropylchenodeoxycholamide] | 2 µg/mL | 50 µg/mL (≈ 91.4 µM) | 50 µg/mL (≈ 91.4 µM) | 8 µg/mL (≈ 14.6 µM) | 1 µg/mL (≈ 1.83 µM) | 27 µg/mL (≈ 49.4 µM) | 27 µg/mL | –
CC(C)NC(=O)CC[C@@H](C)[C@H]1CCC2C3C(C[C@H](O)[C@@]21C)[C@@]1(C)CC[C@H](NCCCNCCCN)CC1C[C@H]3O (stereo partly drawn) [(5), 3β-norspermidino-N-isopropylcholamide] | 1 µg/mL | 70 µg/mL (≈ 124 µM) | 70 µg/mL (≈ 124 µM) | 16 µg/mL (≈ 28.4 µM) | 4 µg/mL (≈ 7.11 µM) | 64 µg/mL (≈ 114 µM) | 64 µg/mL | –
CC(C)NC(=O)CC[C@@H](C)[C@H]1CCC2C3CCC4C[C@@H](NCCCN(C)CCCN)CC[C@]4(C)C3C[C@H](O)[C@@]21C (stereo partly shown) [(25)] | 2 µg/mL | 48 µg/mL (≈ 85.6 µM) | – | 14 µg/mL (≈ 25 µM) | 2 µg/mL (≈ 3.57 µM) | 28 µg/mL (≈ 49.9 µM) | 56 µg/mL | noteworthy synergism
CC(C)NC(=O)CC[C@@H](C)[C@H]1CCC2C3C(CC[C@@]21C)[C@@]1(C)CC[C@H](NCCCN(C)CCCN)CC1C[C@H]3O (stereo partly drawn) [(27), 3β-(bis(3-aminopropyl)methylamine)-N-isopropylchenodeoxycholamide] | 2 µg/mL | 100 µg/mL (≈ 178 µM) | 100 µg/mL (≈ 178 µM) | 16 µg/mL (≈ 28.5 µM) | 4 µg/mL (≈ 7.13 µM) | 128 µg/mL (≈ 228 µM) | 64 µg/mL | –
CC(C)NC(=O)CC[C@@H](C)[C@H]1CCC2C3CCC4C[C@@H](NCCCNCCCN)CC[C@]4(C)C3C[C@H](O)[C@@]21C (stereo partly drawn) [Compound (2), 3β-norspermidino-N-isopropyldeoxycholamide] | 0.9 µg/mL | 35 µg/mL (≈ 64 µM) | – | 14 µg/mL (≈ 25.6 µM) | 1 µg/mL (≈ 1.83 µM) | 14 µg/mL (≈ 25.6 µM) | 28 µg/mL | noteworthy synergism
CC(C)NC(=O)CC[C@@H](C)[C@H]1CCC2C3C(CC[C@@]21C)[C@@]1(C)CC[C@H](NCCCNCCCN)CC1C[C@@H]3O (stereo partly drawn) [(15), 3β-norspermidino-N-isopropylursodeoxycholamide] | 1 µg/mL | 140 µg/mL (≈ 256 µM) | 85 µg/mL (≈ 155 µM) | 112 µg/mL (≈ 205 µM) | 7 µg/mL (≈ 12.8 µM) | 112 µg/mL (≈ 205 µM) | 110 µg/mL | –
CC(C)NC(=O)CC[C@@H](C)[C@H]1CCC2C3C(CC[C@@]21C)[C@@]1(C)CC[C@H](NCCCNCCCNCCCN)CC1C[C@H]3O (stereo partly drawn) [(7), 3β-norspermino-N-isopropylchenodeoxycholamide] | 1 µg/mL | 55 µg/mL (≈ 91.1 µM) | – | 4 µg/mL (≈ 6.62 µM) | 1 µg/mL (≈ 1.66 µM) | 15 µg/mL (≈ 24.8 µM) | 15 µg/mL | –
CC(C)NC(=O)CC[C@@H](C)[C@H]1CCC2C3C(CC[C@@]21C)[C@@]1(C)CC[C@H](NCCCNCCCCNCCCN)CC1C[C@@H]3O (stereo partly drawn) [Compound (35), 3β-spermino-N-isopropylursodeoxycholamide] | 2 µg/mL | 55 µg/mL (≈ 89 µM) | 55 µg/mL (≈ 89 µM) | 64 µg/mL (≈ 104 µM) | 8 µg/mL (≈ 12.9 µM) | 64 µg/mL (≈ 104 µM) | 64 µg/mL | –

Source: patent publication US10780101B2, “Amide derivatives of squalamine for the treatment of infections” (VIRBAC, priority 2016, dated 2020)
